Laboratory results: US12539292B2, “BRM targeting compounds and associated methods of use” (Arvinas Operations, Inc., priority 2018, dated 2026)
Read-outs that look alike come from different tables or passages of the source.

Target: T1, BRM (Homo sapiens, UniProt P51531)
T1 construct: In-Cell Western Screen of BRM Degradation in SW1573 Cells; endogenous in cells; host or cells: SW1573
Experiment: In-cell Western screen of BRM degradation in SW1573 cells (Dmax and DC50)
Type: cell-based
In short: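 SW1573 cells were treated with compound overnight (18-20 h; final DMSO 0.1%), then fixed in 4% PFA, permeabilized with Triton X-100 and blocked. BRM was detected by in-cell Western using 800 nm anti-rabbit and 680 nm anti-mouse secondaries, and Dmax and DC50 were derived from the LI-COR Odyssey signal.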

[1] = BRM degradation, SW1573 cells, read-out: DC50
[2] = BRM degradation, SW1573 cells, when tested at the top concentration of between 0.3 and 10 μM, read-out: Dmax (%) (% degraded)

T1 sequence (P51531 whole entry): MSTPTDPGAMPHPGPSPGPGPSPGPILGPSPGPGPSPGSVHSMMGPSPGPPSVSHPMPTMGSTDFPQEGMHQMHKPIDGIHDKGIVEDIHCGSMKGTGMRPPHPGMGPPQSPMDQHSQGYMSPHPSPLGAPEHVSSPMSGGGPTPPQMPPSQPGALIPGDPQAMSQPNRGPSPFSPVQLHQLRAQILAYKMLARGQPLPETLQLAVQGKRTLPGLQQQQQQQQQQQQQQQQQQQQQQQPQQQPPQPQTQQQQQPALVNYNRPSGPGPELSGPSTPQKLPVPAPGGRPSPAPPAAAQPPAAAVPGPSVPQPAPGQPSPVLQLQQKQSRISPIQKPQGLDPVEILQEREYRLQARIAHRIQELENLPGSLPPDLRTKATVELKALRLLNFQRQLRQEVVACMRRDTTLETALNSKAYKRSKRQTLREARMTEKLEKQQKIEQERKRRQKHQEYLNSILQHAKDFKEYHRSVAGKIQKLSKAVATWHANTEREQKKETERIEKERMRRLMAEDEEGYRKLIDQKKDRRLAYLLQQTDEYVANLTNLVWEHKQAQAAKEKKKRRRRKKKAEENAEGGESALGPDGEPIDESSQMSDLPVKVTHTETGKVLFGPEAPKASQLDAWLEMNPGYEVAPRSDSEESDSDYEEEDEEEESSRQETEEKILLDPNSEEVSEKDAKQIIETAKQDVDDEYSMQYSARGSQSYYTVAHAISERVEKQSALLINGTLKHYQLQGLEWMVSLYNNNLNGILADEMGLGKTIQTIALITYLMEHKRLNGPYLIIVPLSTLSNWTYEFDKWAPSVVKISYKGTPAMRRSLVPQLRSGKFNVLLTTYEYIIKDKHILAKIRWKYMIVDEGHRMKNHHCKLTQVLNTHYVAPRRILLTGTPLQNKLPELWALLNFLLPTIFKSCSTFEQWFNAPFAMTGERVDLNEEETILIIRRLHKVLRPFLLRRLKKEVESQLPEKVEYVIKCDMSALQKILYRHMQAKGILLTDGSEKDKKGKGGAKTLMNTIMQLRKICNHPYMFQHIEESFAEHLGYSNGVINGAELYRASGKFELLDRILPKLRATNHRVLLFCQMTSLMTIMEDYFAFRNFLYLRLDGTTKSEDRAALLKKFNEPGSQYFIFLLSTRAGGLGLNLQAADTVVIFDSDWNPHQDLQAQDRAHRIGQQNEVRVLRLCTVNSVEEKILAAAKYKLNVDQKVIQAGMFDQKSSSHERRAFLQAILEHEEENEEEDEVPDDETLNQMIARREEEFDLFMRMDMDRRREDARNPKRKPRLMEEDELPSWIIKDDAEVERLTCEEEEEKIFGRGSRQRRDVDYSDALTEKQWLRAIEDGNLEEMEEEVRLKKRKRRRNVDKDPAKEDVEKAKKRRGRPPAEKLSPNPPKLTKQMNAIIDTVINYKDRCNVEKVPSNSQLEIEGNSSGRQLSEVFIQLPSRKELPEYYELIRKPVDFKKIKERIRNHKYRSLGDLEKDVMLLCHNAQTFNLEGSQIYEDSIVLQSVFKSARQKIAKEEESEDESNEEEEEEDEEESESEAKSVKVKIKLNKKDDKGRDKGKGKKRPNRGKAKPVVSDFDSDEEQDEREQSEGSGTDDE

## Cc1ncsc1-c1ccc([C@H](C)NC(=O)[C@@H]2C[C@@H](O)CN2C(=O)[C@@H](c2cc(OCCN3CCN(CCOc4cc(N5C6CCC5CN(c5cc(-c7ccccc7O)nnc5N)C6)ccn4)C[C@H]3C)no2)C(C)C)cc1 [compound 142, (2S,4R)-1-((2R)-2-(3-(2-((2R)-4-(2-((4-(3-(3-amino-6-(2-hydroxyphenyl)pyridazin-4-yl)-3,8-diazabicyclo[3.2.1]octan-8-yl)pyridin-2-yl)oxy)ethyl)-2-methylpiperazin-1-yl)ethoxy)isoxazol-5-yl)-3-methylbutanoyl)-4-hydroxy-N-((S)-1-(4-(4-methylthiazol-5-yl)phenyl)ethyl)pyrrolidine-2-carboxamide]
[1]
  DC50: < 2.5 nM
[2]
  Dmax: > 75%

## Cc1ncsc1-c1ccc(CNC(=O)[C@@H]2C[C@@H](O)CN2C(=O)[C@@H](c2cc(OCCOCCOCCOCCOCCn3cc(-c4cc(-c5ccccc5O)nnc4N)cn3)no2)C(C)C)cc1 [compound 19, (2S,4R)-1-[(2R)-2-[3-[(14-[4-[3-amino-6-(2-hydroxyphenyl)pyridazin-4-yl]-1H-pyrazol-1-yl]-3,6,9,12-tetraoxatetradecan-1-yl)oxy]-1,2-oxazol-5-yl]-3-methylbutanoyl]-4-hydroxy-N-[[4-(4-methyl-1,3-thiazol-5-yl)phenyl]methyl]pyrrolidine-2-carboxamide]
[1]
  DC50: 10 to 30 nM
[2]
  Dmax: > 75%

## Cc1ncsc1-c1ccc([C@H](C)NC(=O)[C@@H]2C[C@@H](O)CN2C(=O)[C@H](c2cc(OCC(F)(F)CN3CCC(O[C@H]4C[C@H](Oc5cc(N6C7CCC6CN(c6cc(-c8ccccc8O)nnc6N)C7)ccn5)C4)CC3)no2)C(C)C)cc1 [compound 483, (2S,4R)-1-((2S)-2-(3-(3-(4-((1r,3S)-3-((4-(3-(3-amino-6-(2-hydroxyphenyl)pyridazin-4-yl)-3,8-diazabicyclo[3.2.1]octan-8-yl)pyridin-2-yl)oxy)cyclobutoxy)piperidin-1-yl)-2,2-difluoropropoxy)isoxazol-5-yl)-3-methylbutanoyl)-4-hydroxy-N-((S)-1-(4-(4-methylthiazol-5-yl)phenyl)ethyl)pyrrolidine-2-carboxamide]
Target protein degradation, read-out: BRM DC50
  DC50: > 30 nM

## Cc1ncsc1-c1cc(F)c([C@@H](C)NC(=O)[C@@H]2C[C@@H](O)CN2C(=O)[C@@H](c2cc(OCCN3CCC(O[C@H]4C[C@H](Oc5cc(N6C7CCC6CN(c6cc(-c8ccccc8O)nnc6N)C7)ccn5)C4)CC3)no2)C(C)C)cn1 [compound 541, (2S,4R)-1-((2R)-2-(3-(2-(4-((1r,3R)-3-((4-(3-(3-amino-6-(2-hydroxyphenyl)pyridazin-4-yl)-3,8-diazabicyclo[3.2.1]octan-8-yl)pyridin-2-yl)oxy)cyclobutoxy)piperidin-1-yl)ethoxy)isoxazol-5-yl)-3-methylbutanoyl)-N-((R)-1-(4-fluoro-6-(4-methylthiazol-5-yl)pyridin-3-yl)ethyl)-4-hydroxypyrrolidine-2-carboxamide]
BRM degradation, SW1573 cells, Table 2D, read-out: *DC50
  DC50: > 30 nM

## Cc1ncsc1-c1ccc([C@H](C)NC(=O)[C@@H]2C[C@@H](O)CN2C(=O)[C@H](c2cc(N3CCC(CO[C@H]4C[C@H](Oc5cc(N6C7CCC6CN(c6cc(-c8ccccc8O)nnc6N)C7)ccn5)C4)CC3)no2)C(C)C)cc1 [compound 433, (2S,4R)-1-((2S)-2-(3-(4-(((1r,3S)-3-((4-(3-(3-amino-6-(2-hydroxyphenyl)pyridazin-4-yl)-3,8-diazabicyclo[3.2.1]octan-8-yl)pyridin-2-yl)oxy)cyclobutoxy)methyl)piperidin-1-yl)isoxazol-5-yl)-3-methylbutanoyl)-4-hydroxy-N-((S)-1-(4-(4-methylthiazol-5-yl)phenyl)ethyl)pyrrolidine-2-carboxamide]
SW1573, % degraded, when tested at the top concentration of between 0.3 and 10 μM, read-out: BRM Dmax (%)
  Dmax: > 75%
Degradation of BRM, read-out: BRM DC50
  DC50: 2.5 to 10 nM

## COCc1ncsc1-c1ccc([C@H](C)NC(=O)[C@@H]2C[C@@H](O)CN2C(=O)C(c2cc(OCCN3CCN(CCOc4cc(N5C6CCC5CN(c5cc(-c7ccccc7O)nnc5N)C6)ccn4)CC3)no2)C(C)C)cc1 (stereo partly drawn) [compound 169, (2S,4R)-1-(2-(3-(2-(4-(2-((4-(3-(3-amino-6-(2-hydroxyphenyl)pyridazin-4-yl)-3,8-diazabicyclo[3.2.1]octan-8-yl)pyridin-2-yl)oxy)ethyl)piperazin-1-yl)ethoxy)isoxazol-5-yl)-3-methylbutanoyl)-4-hydroxy-N-((S)-1-(4-(4-(methoxymethyl)thiazol-5-yl)phenyl)ethyl)pyrrolidine-2-carboxamide]
[1]
  DC50: < 2.5 nM
BRM degradation, SW1573 cells, tested at the top concentration of between 0.3 and 10 μM, read-out: Dmax (%) (% degraded)
  Dmax: > 75%

## Cc1ncsc1-c1ccc([C@H](C)NC(=O)[C@@H]2C[C@@H](O)CN2C(=O)[C@H](c2cc(OCCC3CCN(C[C@H]4C[C@H](C#CC(C)n5cc(-c6cc(-c7ccccc7O)nnc6N)cn5)C4)CC3)no2)C(C)C)cc1 (stereo partly drawn) [compound 633, (2S,4R)-1-((2R)-2-(3-(2-(1-(((1r,3R)-3-(3-(4-(3-amino-6-(2-hydroxyphenyl)pyridazin-4-yl)-1H-pyrazol-1-yl)but-1-yn-1-yl)cyclobutyl)methyl)piperidin-4-yl)ethoxy)isoxazol-5-yl)-3-methylbutanoyl)-4-hydroxy-N-((S)-1-(4-(4-methylthiazol-5-yl)phenyl)ethyl)pyrrolidine-2-carboxamide]
[1]
  DC50: < 2.5 nM
BRM degradation, SW1573 cells, read-out: Dmax (% degraded)
  Dmax: > 75%
